Tests used:
Type in all cases: cell-based
A498 = assay: Soft agar growth assay; settings: A498, clear cell renal cell carcinoma, VHL negative, 100 nM
Procedure: (§1) For the 62 cell lines 96 well suspension cell culture plates were prepared. 100 μL of the soft agar bottom layer (0.6% final concentration in complete medium) was poured and left to solidify. 50 μL of the soft agar top layer (0.4% final concentration) containing the corresponding cells and cell number were then added on top, solidified and incubated at 37° C., 10% CO2. After the soft agar had solidified, the test items were added at indicated final concentrations into the inner wells of the plate. Subsequently, the assay was incubated in cell culture incubators for 8 to 14 days. Finally, the assay was developed using Alamar Blue and upon 1-5 h of incubation at 37° C. fluorescence intensity was determined (excitation: 560 nm; emission: 590 nm). As low control, cells were treated with 1E-05M Staurosporine (6fold values). As high control, cells were treated with 0.1% DMSO (solvent control, 6 fold values).
(§2) Raw data were converted into percent soft agar growth relative to high controls (solvent 0.1% DMSO) and low controls (1E-05M Staurosporine), which were set to 100% and 0%, respectively. The results are tabulated in FIGS. 15A, 15B, and 15C and Table 4 below.

Caki-2 = assay: Soft agar growth assay; settings: Caki-2, clear cell renal cell carcinoma, VHL negative, 100 nM
Procedure: as §1, §2

HCC827 = assay: Soft agar growth assay; settings: HCC827, Non small cell lung carcinoma, EGFR mutation, 100 nM
Procedure: as §1, §2

MCF-7 = assay: Soft agar growth assay; settings: MCF-7, Breast cancer, ER-alpha positive, 100 nM
Procedure: as §1, §2

MKN-45 = assay: Soft agar growth assay; settings: MKN-45, Gastric cancer, MET amplification, 100 nM
Procedure: as §1, §2

NCI-N87 = assay: Soft agar growth assay; settings: NCI-N87, Gastric cancer, HER2 overexpression, 100 nM
Procedure: as §1, §2

RL95-2 = assay: Soft agar growth assay; settings: RL95-2, Endometrial cancer, ER-alpha positive, 100 nM
Procedure: as §1, §2

SK-ES-1 = assay: Soft agar growth assay; settings: SK-ES-1, Osteosarcoma, EWS-FLI1, 100 nM
Procedure: as §1, §2

SK-N-F1 = assay: Soft agar growth assay; settings: SK-N-F1, Neuroblastoma, 100 nM
Procedure: as §1, §2

SK-N-MC = assay: Soft agar growth assay; settings: Neuroblastoma, EWS-FLI1, 100 nM
Procedure: as §1, §2

SK-N-SH = assay: Soft agar growth assay; settings: Neuroblastoma, 100 nM
Procedure: as §1, §2

SK.BR-3 = assay: Soft agar growth assay; settings: SK.BR-3, Breast cancer, HER2 overexpression, 100 nM
Procedure: as §1, §2

T47D = assay: Soft agar growth assay; settings: Breast cancer, ER-alpha positive, 100 nM
Procedure: as §1, §2

U87MG = assay: Soft agar growth assay; settings: Glioma, inactivating mutations in ETV1, FLI1 and SMC3, 100 nM
Procedure: as §1, §2

GRANTA 519 = assay: Cellular proliferation assay; settings: Mantle Cell Lymphoma
Procedure: (§3) All suspension cells were plated (96-well) in triplicate at 5,000-30,000 cells per well for testing (n=3). Viable cell number was estimated after 3, 7 and 10 days by counting viable cells from one vehicle well, generating a cell dilution series, transferring […] per well in duplicate to a 384-well plate, and performing a linear regression to CellTiter-Glo (Promega) response (SPECTRAmax M3, Molecular Devices). Cells from all wells were also fourfold diluted in media and transferred in duplicate for CellTiter-Glo measurement. On days 3 and 7, an equal volume for all wells was split-back with fresh media and compound, such that the resulting cell density for the vehicle well matched the initial seeding density. For days 7 and 10, estimated cell number represents the split-adjusted theoretical cell number. HCT116 were plated (96-well) in triplicate at 250 cells per well. Cells were incubated in the presence of vehicle, 1 μM paclitaxel, or compound. On day 7, CellTiter-Blue (Promega) response was measured and values were normalized to vehicle (100% growth) and paclitaxel (0% growth). For growth assays with inhibitors, n=3 for each concentration with two independent experiments.

SKNO-1 = assay: Cellular proliferation assay
Procedure: as §3

MOLM-14 cells = assay: Screening drug resistant alleles; settings: WT and mutated CDK8 and CDK19
Procedure: as §3, with “experiments. […]” for “experiments.”

Cortistatin A
% growth rel. to vehicle (A498): 51% | % growth rel. to vehicle (Caki-2): 18% | % growth rel. to vehicle (HCC827): 23% | % growth rel. to vehicle (MCF-7): 49% | % growth rel. to vehicle (MKN-45): 27% | % growth rel. to vehicle (NCI-N87): 26% | % growth rel. to vehicle (RL95-2): 16% | % growth rel. to vehicle (SK-ES-1): 36% | % growth rel. to vehicle (SK-N-F1): 30% | % growth rel. to vehicle (SK-N-MC): 45% | % growth rel. to vehicle (SK-N-SH): 29% | % growth rel. to vehicle (SK.BR-3): 22% | % growth rel. to vehicle (T47D): 48% | % growth rel. to vehicle (U87MG): 36% | GI50 (GRANTA 519): 400 nM | IC50 (SKNO-1; SKNO-1 (RUNX1-RUNX1T1), 10-day treatment, read-out: G150 after 10 days of treatment): 1 nM | GI50 (SKNO-1; SKNO-1, RUNX1-RUNX1T1): 1 nM | growth of cells expressing CDK8 W105M or CDK19 W105M (MOLM-14 cells): confers Cortistatin A resistance

Source: patent publication US20180369230A1, “TARGETED SELECTION OF PATIENTS FOR TREATMENT WITH SPECIFIC CORTISTATIN DERIVATIVES” (President and Fellows of Harvard College, priority 2015, published 2018)
